Measured values from ChEMBL document CHEMBL3044825, “Synthesis and in vitro microbial activities of amides of pyridoquinolone” (2011).

Tests used:
Format in all cases: functional
Settings in all cases: read-out: IZ
Bacillus subtilis = experiment: Antibacterial activity against Bacillus subtilis at 100 ug/ml by cup plate method
Candida albicans = experiment: Antifungal activity against Candida albicans at 100 ug/ml by cup-plate method
Staphylococcus aureus = experiment: Antibacterial activity against Staphylococcus aureus at 100 ug/ml by cup-plate method
Escherichia coli = experiment: Antibacterial activity against Escherichia coli at 100 ug/ml by cup-plate method
Pseudomonas aeruginosa = experiment: Antibacterial activity against Pseudomonas aeruginosa at 100 ug/ml by cup-plate method

Structure (SMILES)	zone of inhibition at 100 µg/mL (Bacillus subtilis) [mm]	zone of inhibition at 100 µg/mL (Candida albicans) [mm]	zone of inhibition at 100 µg/mL (Staphylococcus aureus) [mm]	zone of inhibition at 100 µg/mL (Escherichia coli) [mm]	zone of inhibition at 100 µg/mL (Pseudomonas aeruginosa) [mm]
O=C(NC(=S)Nc1ccc([N+](=O)[O-])cc1)c1cn(CCO)c2c(cc(O)c3ncccc32)c1=O	9	4	10	12	10
Cc1cccc(NC(=S)NC(=O)c2cn(CCO)c3c(cc(O)c4ncccc43)c2=O)c1	8	3	9	9	9
O=C(NC(=S)Nc1cccc(Cl)c1)c1cn(CCO)c2c(cc(O)c3ncccc32)c1=O	10	3	9	10	9
O=C(NC(=S)Nc1ccc(O)cc1)c1cn(CCO)c2c(cc(Cl)c3ncccc32)c1=O	11	5	12	12	11
O=C(NC(=S)Nc1ccccc1[N+](=O)[O-])c1cn(CCO)c2c(cc(Cl)c3ncccc32)c1=O	9	4		10	
O=C(NC(=S)Nc1ccc([N+](=O)[O-])cc1)c1cn(CCO)c2c(cc(Cl)c3ncccc32)c1=O	12	5	11	10	9
Cc1ccccc1NC(=S)NC(=O)c1cn(CCO)c2c(cc(Cl)c3ncccc32)c1=O	8	2	6	0	4
Cc1cccc(NC(=S)NC(=O)c2cn(CCO)c3c(cc(Cl)c4ncccc43)c2=O)c1	9	4	10	11	10
O=C(NC(=S)Nc1cccc(Cl)c1)c1cn(CCO)c2c(cc(Cl)c3ncccc32)c1=O	10	3	8	9	9
O=C(NC(=S)Nc1ccccc1)c1cn(CCO)c2c(cc(O)c3ncccc32)c1=O		4			10
O=C(NC(=S)Nc1cccc(O)c1)c1cn(CCO)c2c(cc(O)c3ncccc32)c1=O	10	3	8	9	7
COc1ccc(NC(=S)NC(=O)c2cn(CCO)c3c(cc(O)c4ncccc43)c2=O)cc1	6	2	8	8	8
Cc1ccc(C)c(NS(=O)(=O)c2ccc(NC(=O)c3cn(CCO)c4c(cc(Cl)c5ncccc54)c3=O)cc2)c1	9	4	10	10	10
O=C(Nc1ccc(S(=O)(=O)Nc2ccccc2)cc1)c1cn(CCO)c2c(cc(O)c3ncccc32)c1=O	8	3	9	9	10
O=C(Nc1ccc(S(=O)(=O)Nc2cccc(Cl)c2)cc1)c1cn(CCO)c2c(cc(O)c3ncccc32)c1=O	9	3	8	9	8
COc1ccc(NS(=O)(=O)c2ccc(NC(=O)c3cn(CCO)c4c(cc(O)c5ncccc54)c3=O)cc2)cc1	11	4	10	8	8
O=C(Nc1ccc(S(=O)(=O)Nc2ccc([N+](=O)[O-])cc2)cc1)c1cn(CCO)c2c(cc(O)c3ncccc32)c1=O	11	4	10	12	10
Cc1cccc(NS(=O)(=O)c2ccc(NC(=O)c3cn(CCO)c4c(cc(O)c5ncccc54)c3=O)cc2)c1	12	5	11	10	11
Cc1ccc(C)c(NS(=O)(=O)c2ccc(NC(=O)c3cn(CCO)c4c(cc(O)c5ncccc54)c3=O)cc2)c1	9	4	11	10	11
O=C(NC(=S)Nc1ccccc1)c1cn(CCO)c2c(cc(Cl)c3ncccc32)c1=O	11	3	9	10	9

Structure (SMILES)	zone of inhibition at 100 µg/mL (Bacillus subtilis) [mm]	zone of inhibition at 100 µg/mL (Candida albicans) [mm]	zone of inhibition at 100 µg/mL (Staphylococcus aureus) [mm]	zone of inhibition at 100 µg/mL (Escherichia coli) [mm]	zone of inhibition at 100 µg/mL (Pseudomonas aeruginosa) [mm]
O=C(Nc1ccccc1[N+](=O)[O-])c1cn(CCO)c2c(cc(O)c3ncccc32)c1=O	11	4	10	9	9
Cc1ccccc1NC(=O)c1cn(CCO)c2c(cc(O)c3ncccc32)c1=O		0		9	
Cc1ccc(NC(=O)c2cn(CCO)c3c(cc(O)c4ncccc43)c2=O)cc1	8	3	9	10	9
O=C(Nc1ccc(S(=O)(=O)Nc2cccc(Cl)c2)cc1)c1cn(CCO)c2c(cc(Cl)c3ncccc32)c1=O	9	4	11	10	10
COc1ccccc1NS(=O)(=O)c1ccc(NC(=O)c2cn(CCO)c3c(cc(Cl)c4ncccc43)c2=O)cc1				5	5
COc1ccc(NS(=O)(=O)c2ccc(NC(=O)c3cn(CCO)c4c(cc(Cl)c5ncccc54)c3=O)cc2)cc1	10	3	9	9	10
O=C(Nc1ccc(S(=O)(=O)Nc2ccc([N+](=O)[O-])cc2)cc1)c1cn(CCO)c2c(cc(Cl)c3ncccc32)c1=O	10	3	9	11	9
Cc1ccccc1NS(=O)(=O)c1ccc(NC(=O)c2cn(CCO)c3c(cc(Cl)c4ncccc43)c2=O)cc1	10	3	9	9	9
O=C(Nc1ccccc1)c1cn(CCO)c2c(cc(Cl)c3ncccc32)c1=O		5	12	12	
O=C(Nc1cccc(Cl)c1)c1cn(CCO)c2c(cc(Cl)c3ncccc32)c1=O	9	3	8	7	7
O=C(Nc1ccc(Cl)cc1)c1cn(CCO)c2c(cc(Cl)c3ncccc32)c1=O	7			6	6
COc1ccccc1NC(=O)c1cn(CCO)c2c(cc(Cl)c3ncccc32)c1=O	10	3	9	8	8
O=C(Nc1ccccc1[N+](=O)[O-])c1cn(CCO)c2c(cc(Cl)c3ncccc32)c1=O	10	4			
O=C(Nc1cccc([N+](=O)[O-])c1)c1cn(CCO)c2c(cc(Cl)c3ncccc32)c1=O	6	3	9	9	9
O=C(Nc1ccc([N+](=O)[O-])cc1)c1cn(CCO)c2c(cc(Cl)c3ncccc32)c1=O		4		9	
Cc1cccc(NC(=O)c2cn(CCO)c3c(cc(Cl)c4ncccc43)c2=O)c1	9	4	10	10	10
O=C(Nc1ccc(Cl)cc1)c1cn(CCO)c2c(cc(O)c3ncccc32)c1=O	10	5		10	
COc1ccc(NC(=O)c2cn(CCO)c3c(cc(O)c4ncccc43)c2=O)cc1	12	5	10	11	10
C[C@@H]1[C@H](O)[C@@H](C)/C=C/C=C/C=C/C=C/C=C/C=C/C=C/[C@H](O[C@@H]2O[C@H](C)[C@@H](O)[C@H](N)[C@@H]2O)C[C@@H]2O[C@](O)(C[C@@H](O)C[C@@H](O)[C@H](O)CC[C@@H](O)C[C@@H](O)CC(=O)O[C@H]1C)C[C@H](O)[C@H]2C(=O)O [AMPHOTERICIN B]		9			
O=C(O)c1cn(C2CC2)c2cc(N3CCNCC3)c(F)cc2c1=O [CIPROFLOXACIN]	16		17		17
